Measured values published in EP3248604A1, “AGENTS FOR MODULATION OF WNT-TCF SIGNALLING AND USES THEREOF” (UNIVERSITE DE GENEVE, priority 2016, dated 2017).

Key:
[1] = test system: CC14 cells; assay: Live imaging cell proliferation (growth curves); type: cell-based, human; settings: 150 nM, vs DMSO
Procedure: Primary colon cells CC14 were cultured in DMEM-F12 with 10% FBS under standard in vitro conditions.
Live imaging and quantification of total cell mass was performed using a Widefield plate reader, ImageXpress XL with an inbuilt temperature and CO2 controller, and a CoolSnap HQ camera (Photometrics).

[2] = test system: CC14 cells; assay: Epithelial island morphology of CC14 cells; type: cell-based, human; settings: 1 µM, 24h
Procedure: Similar phenotypes were only observed at 10 µM of CAP1 or 5 µM of CAP3. CAP2 was thus chosen for further detailed analyses.

[3] = test system: Ls174T cells; assay: Clonal spheroid assay, Ls174T; type: cell-based, human; settings: Ls174T pretreated at 5µM; after three passes
Procedure: (§1) Cells were treated with different concentrations of compounds for 16h in 2D adherent culture, washed, harvested and plated in suspension with serum-free DMEM-F12 media with B27 supplement (1:50 dilution) at 1 cell/well in 96-well format in triplicates. Plated cells were monitored to ensure the presence of single cells in each well and spheroids counted and photographed after 10 days for each round.
(§2) To directly test for a long-lasting repression of WNT-TCF targets by CAP2 clonogenic properties of cancer stem cells were tested. DLD1 and LS174T cells were first treated with CAP2 in 2D culture in vitro followed by removal of the drug, washing with PBS, and plating under non-adherent 3D conditions for clonal spheroid growth in the absence of the drug. After primary spheroid growth, the spheroids were dissociated and replated as single cells for secondary and subsequent clonogenic spheroid formation, also in the absence of the compound of the invention. As negative control DMSO-treatment was used.

[4] = test system: DLD1 cells; assay: Clonal spheroid assay, DLD1; type: cell-based, human; settings: DLD1 pretreated in 2D; normalized over DMSO controls (Figure 11A)
Procedure: as §1, §2

[5] = test system: CYCLIN D1; assay: Western blot of CYCLIN D1 in DLD1 cells; type: cell-based, human; settings: 5 µM CAP2 (batch 3), vs DMSO
Procedure: Western blot performed according to standard methods.
The effect of CAP2 on WNT-TCF signaling the levels of direct TCF target CYCLIN D1 were measured since it is useful to measure TCF response (Melotti et al., 2014, sura).

[6] = test system: DLD1 xenografts; assay: DLD1 colon cancer xenograft in Nude mice; type: in vivo
Procedure: 0.5x10^6 DLD1/ GFP^+ (cells expressing green fluorescent protein) cells were injected per flanks into 6 week-old female Nude mice (Janvier Labs). CAP2 (10mg/kg) complexed with cyclodextrine as vehicle, or vehicle alone, were injected daily intra-peritoneally (IP) once the tumors were palpable (25-50 mm^3). Tumor volumes were measured every other day with a caliper. Animals were sacrificed at the end of experiment and tumors harvested.
CAP2 from four independent batches supplied by Analyticon Discovery was dissolved in DMSO and suspended in 45% beta-cyclodextrin. 45% beta-cyclodextrin was used as vehicle for controls. 150µl of drug or vehicle alone was administered per mouse daily.
GFP^+ DLD1-engrafted mice were treated with cyclodextrin-conjugated CAP2 at 10mg/kg via IP […] starting at the time when tumors were palpable. […] Analyses of gene expression using human-specific primers in treated tumors (using the excised area where remnant DLD-GFP^+ cells could be found) confirmed the repression of human AXIN2, ASCL2 and LGR5 (Table 11).

## CC1=C(C)C(=O)O[C@@H]([C@](C)(O)[C@]2(O)CC[C@@]3(O)[C@@H]4CC=C5C=CCC(=O)[C@]5(C)[C@H]4CC[C@]23C)C1 [CAP2]
[1]
  effect on cell growth (growth curves): growth repressive effect
[2]
  epithelial island morphology: totally disrupted
[3]
  clonogenic cancer stem cells in serial spheroid assays: exhaustion of clonogenic cancer stem cells
[4]
  primary 3D clonal spheroids: dose-dependent decrease in primary spheroids
[5]
  level of CYCLIN D1 (Western blot): decrease in the level of TCF target CYCLIN D1
[6]; DLD1 xenograft, Nude mice, 10mg/kg IP
  side effects: without any visible side effects
[6]; DLD1 xenograft, Nude mice, cyclodextrin-conjugated CAP2 10mg/kg IP, vs cyclodextrin carrier
  tumor growth: blockade of tumor growth
[6]; four DLD1 regressed tumors, 90 days following drug removal
  number of regressed tumors that re-grew: one
